From article PMC11357160, “Gouregine, an α-Gem-Dimethyltetradehydrocularine Alkaloid, and Other Aporphinoid Alkaloids from the Bark of Guatteria olivacea (Annonaceae) and Their In Vitro Cytotoxic Activities” (Molecules, 2024)
Values joined by “and” are separate entries in the source; they are usually repeats but may differ in a detail not shown here. Identical values can stand only once. Counter-ions that a name gives are not always drawn.

How the values were obtained:
[1] = test system: HepG2 (human hepatocellular carcinoma); test: Alamar blue cytotoxicity assay, 72 h, HepG2; format: cell-based; settings: for IC50: Homo sapiens, HepG2, Alamar blue, 72 h incubation
Description: (§1) The in vitro cytotoxic activities of the isolated compounds 1–9 were evaluated against the cancer cell lines HepG2 (human hepatocellular carcinoma), KG-1a (human myeloid leukemia), and HCT116 (human colon carcinoma), and the noncancerous cell line MRC-5 (human lung fibroblast) via the Alamar blue assay after 72 h of incubation.
(§2) The HepG2 (human hepatocellular carcinoma), KG-1a (human myeloid leukemia), HCT116 (human colon carcinoma), and MRC-5 (human lung fibroblast) cell lines were obtained from the American Type Culture Collection (ATCC, Manassas, VA, USA) and were cultured as recommended by the American Type Culture Collection (ATCC) animal culture guide. All the cell lines were tested for mycoplasma via a mycoplasma stain kit (Sigma-Aldrich) to validate the use of cells that were free from contamination.
(§3) For the cytotoxicity assay, cell viability was quantified via the Alamar blue method, as previously described. For all the experiments, the cells were plated in 96-well plates. The chemical constituents evaluated varied in purity between 90% and 99.8%, which was determined on the basis of the relative integrals of the signals of the constituents in relation to the signals of the impurities contained. Most of the constituents had purities greater than 95%, except for constituents 4 and 5, which had purities of approximately 90%. The chemical constituents were dissolved in dimethyl sulfoxide (DMSO, Vetec Química Fina Ltda., Duque de Caxias, RJ, Brazil), added to each well, and incubated for 72 h. […] At the end of the treatment, 20 µL of a stock solution (0.312 mg/mL) of resazurin (Sigma-Aldrich Co.) was added to each well. The absorbances at 570 nm and 600 nm were measured via a SpectraMax 190 Microplate Reader (Molecular Devices, Sunnyvale, CA, USA). The half-inhibitory concentration (IC50) was obtained via nonlinear regression with 95% confidence intervals (CIs 95%) via the software GraphPad Prism 8 (Intuitive Software for Science; San Diego, CA, USA).

[2] = test system: HCT116 (human colon carcinoma); test: Alamar blue cytotoxicity assay, 72 h, HCT116; format: cell-based; settings: for IC50: Homo sapiens, HCT-116, HCT116, Alamar blue, 72 h incubation; for Selectivity index (SI): SI = IC50 [noncancerous cells MRC-5]/IC50 [HCT116]
Description: as §1, §2, §3

[3] = test system: MRC-5 (human lung fibroblast); test: Alamar blue cytotoxicity assay, 72 h, noncancerous MRC-5; format: cell-based; settings: MRC5, MRC-5 noncancerous cells, 72 h incubation
Description: as §1, §2, §3

[4] = parameters: method as in PMID 25065531, PMID 33290909, PMID 15540220, PMID 12951096, PMID 35597316; settings: cited from earlier work
[5] = test system: cancer cells; parameters: method as in PMID 25065531, PMID 33290909, PMID 15540220, PMID 12951096, PMID 35597316; settings: cited from earlier work
[6] = test system: HL-60 leukemia cells; parameters: method as in ref 47 Kim et al.; settings: HL-60 cells, via p38 MAPK pathway; ref 47 Kim et al.; cited from earlier work
[7] = test system: KG-1a (human myeloid leukemia); test: Alamar blue cytotoxicity assay, 72 h, KG-1a; format: cell-based; settings: 72 h incubation
Description: as §2
as §3, with “Most of the constituents had purities greater than 95%, except for constituents 4 and 5, which had purities of approximately 90%.” left out, “The half-inhibitory concentration (IC50) was obtained via nonlinear regression with 95% confidence intervals (CIs 95%) via the software GraphPad Prism 8 (Intuitive Software for Science; San Diego, CA, USA).” left out

[8] = test system: Akt activation in anaplastic human thyroid cancer cells; parameters: method as in PMID 38139812; settings: cited from earlier work
[9] = test system: human colon cancer cell lines and cancer stem cells (Wnt/β-catenin); parameters: method as in PMID 37656375; settings: through the inhibition of Wnt/β-catenin; cited from earlier work
[10] = parameters: method as in ref 41 = [41]; 41. Osorio D.E.J. Montoya P.G.L. Muñoz D.K. Arango A.G.J. Actividad antiplasmodial de alcaloides aporfínicos de Rollinia pittieri Y Pseudomalmea boyacana (Annonaceae) Vitae 2006 13 49 54; settings: cited from earlier work
[11] = test system: human cancer cells; parameters: method as in ref 41 = [41]; 41. Osorio D.E.J. Montoya P.G.L. Muñoz D.K. Arango A.G.J. Actividad antiplasmodial de alcaloides aporfínicos de Rollinia pittieri Y Pseudomalmea boyacana (Annonaceae) Vitae 2006 13 49 54; settings: cited from earlier work
[12] = test system: CAOV-3 ovarian cancer cells; parameters: method as in PMID 25792804; settings: CAOV-3 cells, mitochondrial pathway, activation of caspase-3 and caspase-9; cited from earlier work

For COc1c2c3c(c(OC)c1OC)-c1ccc(O)cc1C(C)(C)C3=NCC2 [9-hydroxyiguattescine (4), 9-hydroxyiguattescine], the IC50 [1] was > 25 µg/mL and > 70.7 µM, the IC50 [2] was > 25 µg/mL and > 70.7 µM and the IC50 [3] was > 25 µg/mL and > 70.7 µM.
In the case of C=C[C@@]1(C)CC=C2C(CCC3[C@](C)(C(=O)O)CCC[C@@]23C)C1 (stereo partly drawn) [Acanthoic acid (7), acanthoic acid], the IC50 [1] is reported as 14.6 µg/mL and 48.4 µM, the IC50 [2] is reported as 21.2 µg/mL and 70.2 µM and the IC50 [3] is reported as > 25 µg/mL and > 82.7 µM. For the same molecule, the anti-inflammatory activity [4] was “anti-inflammatory activity”, the “cytotoxicity to cancer cells” value [5] was “low cytotoxicity” and the apoptotic cell death [6] was “causing apoptotic cell death”.
In the case of COc1c(O)c2c3c(c1OC)CCN=C3C(C)(C)c1cc(O)ccc1-2 [Dihydromelosmine (5), dihydromelosmine], the IC50 [1] is reported as > 25 µg/mL and > 73.7 µM, the IC50 [2] is reported as > 25 µg/mL and > 73.7 µM and the IC50 [3] is reported as > 25 µg/mL and > 73.7 µM.
For COc1cccc2c1C(=O)c1c(O)c3c(c(O)c1C2=O)C[C@@](O)(C(=O)CO)C[C@@H]3O[C@H]1C[C@H](N)[C@H](O)[C@H](C)O1 [Doxorubicin, doxorubicin hydrochloride, reference compound], the IC50 [1] was 0.04 µg/mL and 70 nM, the “Selectivity index (SI)” value ([1]; SI = IC50 [noncancerous cells MRC-5]/IC50 [HepG2]) was 35.50 and the IC50 [7] was 0.22 µg/mL and 400 nM. The IC50 [2] was 0.2 µg/mL and 360 nM, the “Selectivity index (SI)” value [2] was 7.10 and the IC50 [3] was 1.42 µg/mL and 2.61 µM.
For COc1c(O)c2c3c(nccc3c1OC)C(C)(C)c1cc(O)ccc1O2 [Gouregine (9), gouregine], the IC50 [1] was > 25 µg/mL and > 70.7 µM, the IC50 [7] was > 25 µg/mL and > 70.7 µM and the IC50 [3] was > 25 µg/mL and > 70.7 µM.
With COc1c2c3c(c(OC)c1OC)-c1ccc(O)cc1C(C)(O)C3=NCC2 (stereo not drawn) [Guattouregidine (8), guattouregidine] the IC50 [1] was > 25 µg/mL and > 73.2 µM, the IC50 [2] was > 25 µg/mL and > 73.2 µM and the IC50 [3] was > 25 µg/mL and > 73.2 µM.
For COc1c(O)c2c3c(c1OC)CCN[C@@H]3Cc1ccccc1-2 [Isopiline (1), isopiline], the IC50 [2] was > 25 µg/mL and > 84.1 µM and the IC50 [3] was > 25 µg/mL and > 84.1 µM.
For COc1cc2ccnc3c2c(c1OC)-c1ccccc1C3=O [Lysicamine (6), lysicamine], the IC50 [2] was 6.64 µg/mL and 22.8 µM, the “Selectivity index (SI)” value [2] was 2.60 and the IC50 [3] was 17.2 µg/mL and 59.2 µM. The “effect on Akt activation” value [8] was “inhibit Akt activation” and the “effect on colon cancer cell lines and cancer stem cells” value [9] was “suppress human colon cancer cell lines and cancer stem cells”.
With COc1c(O)c2c3c(nccc3c1OC)C(C)(C)c1cc(O)ccc1-2 [Melosmine (3), melosmine] the IC50 [2] was 16.8 µg/mL and 49.7 µM, the “Selectivity index (SI)” value [2] was 1.41 and the IC50 [3] was 23.7 µg/mL and 70.3 µM. The antimalarial activity [10] was “antimalarial agent” and the “cytotoxicity to human cancer cells” value [11] was “low cytotoxicity”.
For COc1c2c3c(c(OC)c1OC)-c1ccccc1CC3NCC2 (stereo not drawn) [O-Methylisopiline (2), O-methylisopiline], the IC50 [2] was > 25 µg/mL and > 80.3 µM and the IC50 [3] was > 25 µg/mL and > 80.3 µM.
For O=C1c2ccccc2-c2c3c(cc4ccnc1c24)OCO3 [liriodenine], the apoptosis [12] is listed as “caused apoptosis”.
